According to ChEMBL document CHEMBL5058645, “Data for DCP probe JNJ-6204” (2022):

Assays:
[1] = target: Serine/threonine-protein kinase BRSK2 (Homo sapiens) (UniProt Q8IWQ3); test: BrSK2(h) Kinase panel; conditions: Compound concentration 1.0 uM, tested as the 2H-labelled form
[2] = target: Serine/threonine-protein kinase ICK (Homo sapiens) (UniProt Q9UPZ9); test: ICK(h) Kinase panel; conditions: Compound concentration 1.0 uM, tested as the 2H-labelled form
[3] = target: Bone morphogenetic protein receptor type-1B (Homo sapiens) (UniProt O00238); test: ALK6(h) Kinase panel; conditions: Compound concentration 1.0 uM, tested as the 2H-labelled form
[4] = target: Phosphorylase b kinase gamma catalytic chain, testis/liver isoform (Homo sapiens) (UniProt P15735); test: PhKgamma2(h) Kinase panel; conditions: Compound concentration 1.0 uM, tested as the 2H-labelled form
[5] = target: Beta-1 adrenergic receptor (Homo sapiens) (UniProt P08588); conditions: Compound concentration 10.0 uM, tested as the 2H-labelled form
[6] = target: Serine/threonine-protein kinase mTOR (Homo sapiens) (UniProt P42345); test: mTOR(h) Kinase panel; conditions: Compound concentration 1.0 uM, tested as the 2H-labelled form
[7] = target: Serine/threonine-protein kinase MRCK alpha (Homo sapiens) (UniProt Q5VT25); test: MRCKalpha(h) Kinase panel; conditions: Compound concentration 1.0 uM, tested as the 2H-labelled form
[8] = target: Mitogen-activated protein kinase kinase kinase kinase 3 (Homo sapiens) (UniProt Q8IVH8); test: MAP4K3(h) Kinase panel; conditions: Compound concentration 1.0 uM, tested as the 2H-labelled form
[9] = target: Muscarinic acetylcholine receptor M3 (Homo sapiens) (UniProt P20309); conditions: Compound concentration 10.0 uM, tested as the 2H-labelled form
[10] = target: Serine/threonine-protein kinase 26 (Homo sapiens) (UniProt Q9P289); test: MST4(h) Kinase panel; conditions: Compound concentration 1.0 uM, tested as the 2H-labelled form
[11] = target: Calcium/calmodulin-dependent protein kinase type 1G (Homo sapiens) (UniProt Q96NX5); test: CaMKIgamma(h) Kinase panel; conditions: Compound concentration 1.0 uM, tested as the 2H-labelled form
[12] = target: Tyrosine-protein kinase ABL1 (Homo sapiens) (UniProt P00519); test: Abl(h) Kinase panel; conditions: Compound concentration 1.0 uM, tested as the 2H-labelled form
[13] = target: Activin receptor type-1-like (Homo sapiens) (UniProt P37023); test: ALK1(h) Kinase panel; conditions: Compound concentration 1.0 uM, tested as the 2H-labelled form
[14] = target: Dual specificity mitogen-activated protein kinase kinase 6 (Homo sapiens) (UniProt P52564); test: MKK6(h) Kinase panel; conditions: Compound concentration 1.0 uM, tested as the 2H-labelled form
[15] = target: Serine/threonine-protein kinase 38-like (Homo sapiens, UniProt Q9Y2H1); test: NDR2(h) Kinase panel; conditions: Compound concentration 1.0 uM, tested as the 2H-labelled form
[16] = target: Casein kinase I isoform gamma-1 (Homo sapiens) (UniProt Q9HCP0); test: CK1gamma1(h) Kinase panel; conditions: Compound concentration 1.0 uM, tested as the 2H-labelled form
Sequence of Casein kinase I isoform gamma-1 (Homo sapiens) (Q9HCP0 whole entry, looked up, canonical isoform): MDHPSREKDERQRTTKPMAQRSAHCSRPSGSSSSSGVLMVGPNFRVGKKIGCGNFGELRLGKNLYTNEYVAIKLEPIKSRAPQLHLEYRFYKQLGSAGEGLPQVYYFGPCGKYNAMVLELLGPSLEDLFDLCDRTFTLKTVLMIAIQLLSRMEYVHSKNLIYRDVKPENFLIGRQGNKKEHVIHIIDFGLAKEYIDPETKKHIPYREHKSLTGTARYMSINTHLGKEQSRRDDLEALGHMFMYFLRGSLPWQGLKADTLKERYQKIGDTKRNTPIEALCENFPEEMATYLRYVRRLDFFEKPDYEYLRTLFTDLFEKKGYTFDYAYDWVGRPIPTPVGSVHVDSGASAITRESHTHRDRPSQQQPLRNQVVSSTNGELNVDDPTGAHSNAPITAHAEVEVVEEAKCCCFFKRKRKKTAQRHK

[17] = target: Phosphatidylinositol 4,5-bisphosphate 3-kinase catalytic subunit delta isoform (Homo sapiens) (UniProt O00329); test: PI3 Kinase (p110d/p85a)(h) Kinase panel; conditions: Compound concentration 1.0 uM, tested as the 2H-labelled form
Sequence of Phosphatidylinositol 4,5-bisphosphate 3-kinase catalytic subunit delta isoform (Homo sapiens) (O00329 whole entry, canonical isoform): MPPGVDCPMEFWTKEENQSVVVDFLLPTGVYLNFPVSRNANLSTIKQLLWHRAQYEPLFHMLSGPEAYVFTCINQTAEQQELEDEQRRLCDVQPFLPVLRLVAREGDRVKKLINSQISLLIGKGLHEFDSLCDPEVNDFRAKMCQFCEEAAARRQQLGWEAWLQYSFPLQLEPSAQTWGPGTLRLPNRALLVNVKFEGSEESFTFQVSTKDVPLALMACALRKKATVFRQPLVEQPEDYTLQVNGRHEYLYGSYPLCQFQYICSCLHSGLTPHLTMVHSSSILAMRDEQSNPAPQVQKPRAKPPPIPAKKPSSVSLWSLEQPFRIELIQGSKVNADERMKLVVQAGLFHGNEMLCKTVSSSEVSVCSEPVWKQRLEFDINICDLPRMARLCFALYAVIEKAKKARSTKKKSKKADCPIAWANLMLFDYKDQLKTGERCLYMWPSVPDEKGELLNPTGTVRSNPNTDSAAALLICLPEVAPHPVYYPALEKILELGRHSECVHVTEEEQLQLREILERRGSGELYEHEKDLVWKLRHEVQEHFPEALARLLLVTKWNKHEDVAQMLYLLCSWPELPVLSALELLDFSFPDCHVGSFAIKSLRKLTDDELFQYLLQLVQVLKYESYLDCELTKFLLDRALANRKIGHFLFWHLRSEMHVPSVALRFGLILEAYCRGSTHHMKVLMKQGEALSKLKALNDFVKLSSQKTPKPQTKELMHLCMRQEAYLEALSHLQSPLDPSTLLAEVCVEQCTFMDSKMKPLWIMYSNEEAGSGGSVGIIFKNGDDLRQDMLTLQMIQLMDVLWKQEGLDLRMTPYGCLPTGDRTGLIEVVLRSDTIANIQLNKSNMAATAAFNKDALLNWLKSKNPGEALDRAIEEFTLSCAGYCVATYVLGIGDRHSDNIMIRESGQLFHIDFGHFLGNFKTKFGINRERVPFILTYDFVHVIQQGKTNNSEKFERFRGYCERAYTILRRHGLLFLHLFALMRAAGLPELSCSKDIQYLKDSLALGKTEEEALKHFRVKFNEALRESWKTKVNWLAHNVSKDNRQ

[18] = target: Macrophage-stimulating protein receptor (Homo sapiens) (UniProt Q04912); test: Ron(h) Kinase panel; conditions: Compound concentration 1.0 uM, tested as the 2H-labelled form
[19] = target: Phosphatidylinositol 4,5-bisphosphate 3-kinase catalytic subunit gamma isoform (Homo sapiens) (UniProt P48736); test: PI3 Kinase (p120g)(h) Kinase panel; conditions: Compound concentration 1.0 uM, tested as the 2H-labelled form
Sequence of Phosphatidylinositol 4,5-bisphosphate 3-kinase catalytic subunit gamma isoform (Homo sapiens) (P48736 whole entry, looked up, canonical isoform): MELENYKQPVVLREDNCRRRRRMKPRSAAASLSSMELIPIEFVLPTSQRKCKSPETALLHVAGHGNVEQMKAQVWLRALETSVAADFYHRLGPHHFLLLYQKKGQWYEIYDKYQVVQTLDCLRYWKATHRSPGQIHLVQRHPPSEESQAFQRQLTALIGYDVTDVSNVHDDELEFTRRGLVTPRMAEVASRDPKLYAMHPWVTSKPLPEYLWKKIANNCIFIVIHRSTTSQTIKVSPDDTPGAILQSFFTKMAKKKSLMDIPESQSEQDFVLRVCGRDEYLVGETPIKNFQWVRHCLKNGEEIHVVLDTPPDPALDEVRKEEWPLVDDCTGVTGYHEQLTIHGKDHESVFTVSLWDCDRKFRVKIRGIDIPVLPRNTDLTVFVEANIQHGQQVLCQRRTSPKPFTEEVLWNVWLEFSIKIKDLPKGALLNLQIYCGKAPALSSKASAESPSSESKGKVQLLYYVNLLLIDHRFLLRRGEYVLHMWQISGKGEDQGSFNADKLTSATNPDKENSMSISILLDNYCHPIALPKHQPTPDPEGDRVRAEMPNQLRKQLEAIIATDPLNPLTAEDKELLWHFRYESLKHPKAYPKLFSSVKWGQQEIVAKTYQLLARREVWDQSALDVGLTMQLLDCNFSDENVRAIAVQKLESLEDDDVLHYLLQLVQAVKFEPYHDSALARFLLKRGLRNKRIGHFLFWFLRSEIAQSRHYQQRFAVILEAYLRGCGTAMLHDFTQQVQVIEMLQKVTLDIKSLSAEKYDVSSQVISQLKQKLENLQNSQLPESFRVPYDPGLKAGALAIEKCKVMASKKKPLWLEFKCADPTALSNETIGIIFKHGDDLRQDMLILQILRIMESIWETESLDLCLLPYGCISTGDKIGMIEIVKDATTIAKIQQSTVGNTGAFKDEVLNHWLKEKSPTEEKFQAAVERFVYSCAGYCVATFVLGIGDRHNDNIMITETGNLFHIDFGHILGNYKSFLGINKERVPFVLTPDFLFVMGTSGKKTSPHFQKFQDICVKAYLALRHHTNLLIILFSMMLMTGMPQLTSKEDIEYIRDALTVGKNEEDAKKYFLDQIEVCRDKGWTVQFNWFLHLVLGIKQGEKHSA

[20] = target: Tyrosine-protein kinase Fyn (Homo sapiens) (UniProt P06241); test: Fyn(h) Kinase panel; conditions: Compound concentration 1.0 uM, tested as the 2H-labelled form
[21] = target: Serine/threonine-protein kinase D1 (Homo sapiens) (UniProt Q15139); test: PKCmu (h) Kinase panel; conditions: Compound concentration 1.0 uM, tested as the 2H-labelled form
[22] = target: Serine/threonine-protein kinase NIM1 (Homo sapiens) (UniProt Q8IY84); test: NIM1(h) Kinase panel; conditions: Compound concentration 1.0 uM, tested as the 2H-labelled form
[23] = target: Ephrin type-A receptor 8 (Homo sapiens) (UniProt P29322); test: EphA8(h) Kinase panel; conditions: Compound concentration 1.0 uM, tested as the 2H-labelled form
[24] = target: Dual specificity protein kinase CLK2 (Homo sapiens) (UniProt P49760); test: CLK2(h) Kinase panel; conditions: Compound concentration 1.0 uM, tested as the 2H-labelled form
[25] = target: Casein kinase II subunit alpha (Homo sapiens) (UniProt P68400); test: CK2alpha1(h) Kinase panel; conditions: Compound concentration 1.0 uM, tested as the 2H-labelled form
[26] = target: Dual specificity tyrosine-phosphorylation-regulated kinase 3 (Homo sapiens) (UniProt O43781); test: DYRK3(h) Kinase panel; conditions: Compound concentration 1.0 uM, tested as the 2H-labelled form
Sequence of Dual specificity tyrosine-phosphorylation-regulated kinase 3 (Homo sapiens) (O43781 whole entry): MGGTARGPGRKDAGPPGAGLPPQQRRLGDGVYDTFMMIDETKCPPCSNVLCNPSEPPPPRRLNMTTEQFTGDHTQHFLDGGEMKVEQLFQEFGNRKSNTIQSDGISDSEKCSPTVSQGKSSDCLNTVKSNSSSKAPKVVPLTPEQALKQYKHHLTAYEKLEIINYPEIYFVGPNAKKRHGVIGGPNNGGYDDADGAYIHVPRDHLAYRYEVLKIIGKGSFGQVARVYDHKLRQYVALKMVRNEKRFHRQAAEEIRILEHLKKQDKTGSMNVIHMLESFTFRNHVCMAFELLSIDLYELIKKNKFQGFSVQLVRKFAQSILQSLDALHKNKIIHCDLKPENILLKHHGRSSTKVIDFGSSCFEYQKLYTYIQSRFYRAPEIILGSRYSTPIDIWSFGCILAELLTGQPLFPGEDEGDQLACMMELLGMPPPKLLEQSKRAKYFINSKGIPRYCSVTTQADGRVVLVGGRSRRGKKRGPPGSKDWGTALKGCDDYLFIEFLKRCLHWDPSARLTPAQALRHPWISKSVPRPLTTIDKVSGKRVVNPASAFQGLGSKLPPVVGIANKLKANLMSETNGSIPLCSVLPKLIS

[27] = target: RAC-gamma serine/threonine-protein kinase (Homo sapiens) (UniProt Q9Y243); test: PKBgamma (h) Kinase panel; conditions: Compound concentration 1.0 uM, tested as the 2H-labelled form
[28] = target: SNF-related serine/threonine-protein kinase (Homo sapiens) (UniProt Q9NRH2); test: SNRK(h) Kinase panel; conditions: Compound concentration 1.0 uM, tested as the 2H-labelled form
[29] = target: Protein kinase C delta type (Homo sapiens) (UniProt Q05655); test: PKCdelta (h) Kinase panel; conditions: Compound concentration 1.0 uM, tested as the 2H-labelled form
[30] = target: Wee1-like protein kinase 2 (Homo sapiens) (UniProt P0C1S8); test: Wee1B(h) Kinase panel; conditions: Compound concentration 1.0 uM, tested as the 2H-labelled form
[31] = target: Serine/threonine-protein kinase 25 (Homo sapiens) (UniProt O00506); test: STK25(h) Kinase panel; conditions: Compound concentration 1.0 uM, tested as the 2H-labelled form
Sequence of Serine/threonine-protein kinase 25 (Homo sapiens) (O00506 whole entry, looked up): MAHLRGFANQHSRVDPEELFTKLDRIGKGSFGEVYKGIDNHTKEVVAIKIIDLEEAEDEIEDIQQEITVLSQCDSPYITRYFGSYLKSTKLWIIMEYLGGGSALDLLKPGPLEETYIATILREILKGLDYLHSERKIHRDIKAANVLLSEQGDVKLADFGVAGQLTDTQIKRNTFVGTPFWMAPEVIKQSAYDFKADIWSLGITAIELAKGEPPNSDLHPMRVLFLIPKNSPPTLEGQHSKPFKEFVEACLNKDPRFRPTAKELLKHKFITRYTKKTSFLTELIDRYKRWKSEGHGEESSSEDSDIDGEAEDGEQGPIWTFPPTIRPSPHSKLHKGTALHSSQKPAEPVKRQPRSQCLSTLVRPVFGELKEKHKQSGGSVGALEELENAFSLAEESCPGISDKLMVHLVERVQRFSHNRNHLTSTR

[32] = target: Mitogen-activated protein kinase kinase kinase 10 (Homo sapiens) (UniProt Q02779); test: MLK2(h) Kinase panel; conditions: Compound concentration 1.0 uM, tested as the 2H-labelled form
[33] = target: Ephrin type-B receptor 1 (Homo sapiens) (UniProt P54762); test: EphB1(h) Kinase panel; conditions: Compound concentration 1.0 uM, tested as the 2H-labelled form
[34] = target: Muscarinic acetylcholine receptor M2 (Homo sapiens) (UniProt P08172); conditions: Compound concentration 10.0 uM, tested as the 2H-labelled form
[35] = target: RAC-alpha serine/threonine-protein kinase (Homo sapiens) (UniProt P31749); test: PKBalpha (h) Kinase panel; conditions: Compound concentration 1.0 uM, tested as the 2H-labelled form
[36] = target: RAC-beta serine/threonine-protein kinase (Homo sapiens) (UniProt P31751); test: PKBbeta (h) Kinase panel; conditions: Compound concentration 1.0 uM, tested as the 2H-labelled form
[37] = target: Protein-tyrosine kinase 6 (Homo sapiens) (UniProt Q13882); test: BRK(h) Kinase panel; conditions: Compound concentration 1.0 uM, tested as the 2H-labelled form
[38] = target: Tyrosine-protein kinase Tec (Homo sapiens) (UniProt P42680); test: Tec(h) activated Kinase panel; conditions: Compound concentration 1.0 uM, tested as the 2H-labelled form
[39] = target: Casein kinase I isoform delta (Homo sapiens, UniProt P48730); conditions: Compound concentration 1.0 uM
Sequence of Casein kinase I isoform delta (P48730 whole entry, looked up, canonical isoform): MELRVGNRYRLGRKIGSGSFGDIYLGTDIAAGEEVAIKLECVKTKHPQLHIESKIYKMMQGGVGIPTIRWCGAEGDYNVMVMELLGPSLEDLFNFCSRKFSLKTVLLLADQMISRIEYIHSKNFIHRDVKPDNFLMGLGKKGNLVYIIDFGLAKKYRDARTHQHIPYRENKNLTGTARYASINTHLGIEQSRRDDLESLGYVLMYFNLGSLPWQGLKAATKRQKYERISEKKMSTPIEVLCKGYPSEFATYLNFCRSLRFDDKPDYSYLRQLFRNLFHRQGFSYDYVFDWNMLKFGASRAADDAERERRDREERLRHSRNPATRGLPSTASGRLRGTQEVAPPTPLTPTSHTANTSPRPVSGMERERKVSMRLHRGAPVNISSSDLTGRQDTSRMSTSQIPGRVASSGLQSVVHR

[40] = target: Vascular endothelial growth factor receptor 1 (Homo sapiens) (UniProt P17948); test: Flt1(h) Kinase panel; conditions: Compound concentration 1.0 uM, tested as the 2H-labelled form
[41] = target: Cyclin-dependent kinase 5 (Homo sapiens) (UniProt Q00535); test: CDK5/p35(h) Kinase panel; conditions: Compound concentration 1.0 uM, tested as the 2H-labelled form
[42] = target: Serine/threonine-protein kinase haspin (Homo sapiens) (UniProt Q8TF76); test: Haspin(h) Kinase panel; conditions: Compound concentration 1.0 uM, tested as the 2H-labelled form
[43] = target: 5-hydroxytryptamine receptor 5A (Homo sapiens) (UniProt P47898); conditions: Compound concentration 10.0 uM, tested as the 2H-labelled form
Sequence of 5-hydroxytryptamine receptor 5A (Homo sapiens) (P47898 whole entry): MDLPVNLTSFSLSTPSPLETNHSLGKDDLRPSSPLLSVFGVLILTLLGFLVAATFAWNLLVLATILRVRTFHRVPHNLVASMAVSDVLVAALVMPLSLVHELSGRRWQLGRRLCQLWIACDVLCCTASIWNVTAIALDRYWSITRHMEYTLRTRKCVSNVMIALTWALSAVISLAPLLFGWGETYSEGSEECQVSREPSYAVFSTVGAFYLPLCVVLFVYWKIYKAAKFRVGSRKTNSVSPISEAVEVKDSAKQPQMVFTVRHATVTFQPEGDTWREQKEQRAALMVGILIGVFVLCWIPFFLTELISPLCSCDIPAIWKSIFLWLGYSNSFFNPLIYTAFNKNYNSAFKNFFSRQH

[44] = target: Muscle, skeletal receptor tyrosine-protein kinase (Homo sapiens) (UniProt O15146); test: MuSK(h) Kinase panel; conditions: Compound concentration 1.0 uM, tested as the 2H-labelled form
[45] = target: Transcription initiation factor TFIID subunit 1-like (Homo sapiens) (UniProt Q8IZX4); test: TAF1L(h) Kinase panel; conditions: Compound concentration 1.0 uM, tested as the 2H-labelled form
[46] = target: Hepatocyte growth factor receptor (Homo sapiens) (UniProt P08581); test: Met(h) Kinase panel; conditions: Compound concentration 1.0 uM, tested as the 2H-labelled form
[47] = target: Maternal embryonic leucine zipper kinase (Homo sapiens) (UniProt Q14680); test: MELK(h) Kinase panel; conditions: Compound concentration 1.0 uM, tested as the 2H-labelled form
[48] = target: Interleukin-1 receptor-associated kinase 1 (Homo sapiens) (UniProt P51617); test: IRAK1(h) Kinase panel; conditions: Compound concentration 1.0 uM, tested as the 2H-labelled form
[49] = target: Protein kinase C iota type (Homo sapiens) (UniProt P41743); test: PKCiota (h) Kinase panel; conditions: Compound concentration 1.0 uM, tested as the 2H-labelled form
Sequence of Protein kinase C iota type (Homo sapiens) (P41743 whole entry): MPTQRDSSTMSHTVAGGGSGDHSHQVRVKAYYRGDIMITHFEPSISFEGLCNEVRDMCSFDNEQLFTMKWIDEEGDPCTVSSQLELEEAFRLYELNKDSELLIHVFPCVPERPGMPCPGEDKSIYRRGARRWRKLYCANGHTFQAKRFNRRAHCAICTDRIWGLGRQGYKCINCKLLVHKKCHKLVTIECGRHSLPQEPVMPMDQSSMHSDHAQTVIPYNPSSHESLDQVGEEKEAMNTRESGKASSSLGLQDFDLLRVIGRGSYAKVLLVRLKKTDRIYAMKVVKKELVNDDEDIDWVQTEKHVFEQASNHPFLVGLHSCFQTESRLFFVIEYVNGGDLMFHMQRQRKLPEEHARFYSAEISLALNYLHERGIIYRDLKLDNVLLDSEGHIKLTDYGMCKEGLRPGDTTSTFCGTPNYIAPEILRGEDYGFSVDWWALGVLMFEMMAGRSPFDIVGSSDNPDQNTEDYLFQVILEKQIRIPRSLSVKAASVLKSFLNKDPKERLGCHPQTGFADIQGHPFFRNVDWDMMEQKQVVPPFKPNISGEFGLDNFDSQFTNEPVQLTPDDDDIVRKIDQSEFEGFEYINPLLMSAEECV

[50] = target: TRAF2 and NCK-interacting protein kinase (Homo sapiens, UniProt Q9UKE5); test: TNIK(h) Kinase panel; conditions: Compound concentration 1.0 uM, tested as the 2H-labelled form
[51] = target: eIF-2-alpha kinase GCN2 (Homo sapiens) (UniProt Q9P2K8); test: GCN2(h) Kinase panel; conditions: Compound concentration 1.0 uM, tested as the 2H-labelled form

inhibition [1]: -2%
inhibition [2]: 10%
inhibition [3]: -5%
inhibition [4]: -9%
inhibition [5]: -1.12%
inhibition [6]: -9%
inhibition [7]: 6%
inhibition [8]: -7%
inhibition [9]: -2.78%
inhibition [10]: 6%
inhibition [11]: 4%
inhibition [12]: -1%
inhibition [13]: 4%
inhibition [14]: 9%
inhibition [15]: 30%
inhibition [16]: 4%
inhibition [17]: 2%
inhibition [18]: 13%
inhibition [19]: 2%
inhibition [20]: 20%
inhibition [21]: 13%
inhibition [22]: 13%
inhibition [23]: 2%
inhibition [24]: 14%
inhibition [25]: 2%
inhibition [26]: 7%
inhibition [27]: 18%
inhibition [28]: 4%
inhibition [29]: 0%
inhibition [30]: -1%
inhibition [31]: 21%
inhibition [32]: 8%
inhibition [33]: 3%
inhibition [34]: -0.4%
inhibition [35]: 2%
inhibition [36]: 0%
inhibition [37]: -1%
inhibition [38]: 29%
inhibition [39]: 105%
inhibition [40]: 7%
inhibition [41]: 15%
inhibition [42]: 9%
inhibition [43]: 3.27%
inhibition [44]: -7%
inhibition [45]: 3%
inhibition [46]: 8%
inhibition [47]: 9%
inhibition [48]: 15%
inhibition [49]: -2%
inhibition [50]: 50%
inhibition [51]: -6%
SMILES: CC1(C)Cn2nc(-c3ccc(F)cn3)c(-c3ccnc4[nH]ncc34)c2CO1
